Test results published in patent US20230210854A1, “MONO- AND COMBINATION THERAPIES” (Recurium IP Holdings, LLC, priority 2020, published 2023).

Columns and labels:
OVCAR3 xenograft = test: OVCAR3 ovarian tumor model, Doxorubicin combination; format: in vivo, BABL/c nude mice; conditions: OVCAR3, 2.5 mg/kg i.p. once per week for 4 weeks, single agent
Description: OVCAR3 xenograft model was established by the inoculation of 200 µL of OVCAR3 tumor cell suspension (1×10^7 cells/mouse, with 50% Matrigel) subcutaneously into the right subaxillary of BABL/c nude mice. When tumors reached approximately 180.8 mm^3, tumor bearing animals were randomly distributed into treatment groups of 10 animals each. […] Tumor volumes were evaluated twice per week to calculate tumor volume over time, and the mice were weighed twice per week as a surrogate for signs of toxicity.

TOV21G xenograft = TOV21G xenograft model; format: in vivo, BALB/c nude mice; conditions: 50 mg/kg i.p. once per week
Description: TOV21G xenograft model was established by the inoculation of 200 µL of TOV-21G tumor cell suspension (5×10^6 cells/mouse, with 50% Matrigel) subcutaneously into the right subaxillary of BALB/c nude mice. When tumors reached approximately 100 to 150 mm^3, tumor bearing animals were randomly distributed into treatment groups of 10 animals each. Animals were orally dosed with vehicle or Compound (1A) at 60 mg/kg for 19 days, carboplatin at 50 mg/kg by the i.p. injection once per week, and Compound (1A) treatment in combination with carboplatin. Tumor volumes were evaluated twice per week to calculate tumor volume over time, and the mice were weighed twice per week as a surrogate for signs of toxicity.

KMS-12-BM cells = test: CellTiter-Glo cell proliferation assay, KMS-12-BM; format: cell-based; conditions: Homo sapiens, 90 nM, 72 hrs
Description: (§1) Cell proliferation was measured using the CellTiter-Glo® Luminescent Cell Viability Assay. The assay involved the addition of a single reagent (CellTiter-Glo® Reagent) directly to cells cultured in serum-supplemented medium. KMS-12-BM, OPM-2 and MOLP8 cells were cultured according to DSMZ recommendations and were seeded at 20,000 cells per well. Each compound evaluated was prepared as a DMSO stock solution (10 mM). Compounds were tested in triplicate on each plate, with a single concentration indicated in each table. Compound treatment (10.0 µL) was added to the cells from the 10x concentration of each compound. Plates were then incubated at 37° C., 5% CO2. After 72 hrs, cell plates were equilibrated at room temperature (rt) for approximately 30 mins. An equi-volume amount of CellTiter-Glo® Reagent (100 µL) was added to each well. Plates were mixed for 2 mins on an orbital shaker to induce cell lysis and then incubated at rt for 10 mins to stabilize the luminescent signal. Luminescence was recorded using a SpectraMAX, M5e plate reader according to CellTiter-Glo protocol.

OPM-2 cells = test: CellTiter-Glo cell proliferation assay, OPM-2; format: cell-based; conditions: Homo sapiens; OPM-2, 50 nM, 72 hrs
Description: as §1

MOLP-8 cells = test: CellTiter-Glo cell proliferation assay, MOLP-8; format: cell-based; conditions: Homo sapiens; MOLP-8, 2 nM, 72 hrs
Description: as §1

A427 cells = test: A427 cell growth study (DNA content, Hoechst 33258); format: cell-based; conditions: suboptimal doses, single agent, Day 6
Description: Experiment method: 3000 of A427 cells were seeded in 96-well pates and allowed to adhere overnight. Treatments with Compound (1A) and/or Triapine were added the next day. Cells were harvested at Day 6 and were assayed for DNA content using Hoechst 33258. Fluorescence intensity was read at excitation 346 nm and emission 460 nm using a plate reader. Data shown in FIG. 27 are representative of three independent experiments (raw fluorescence reading).

x2-MDA-MB-468 tumor = test: x2 MDA-MB-468 TNBC tumor model, Niraparib combination; format: in vivo, mouse; conditions: x2-MDA-MB-468, 45 mg/kg orally, 7 days on, 7 days off for 4 cycles
Description: The x2-MDA-MB-468 cells (ATCC-Chempartner) were maintained in vitro as a monolayer culture in DMEM medium added with 10% FBS, 100 U/mL penicillin and 100 µg/mL streptomycin at 37° C. in an atmosphere of 5% CO2 in air. Each mouse was implanted subcutaneously on right flank with 1 × 10^7 x2-MDA-MD-468 cells in 0.2 mL mixture of RPMI1640 medium with BD Matrigel (base medium: Matrigel=100 uL:100 uL) for tumor development. […] Tumor volumes were evaluated twice per week to calculate tumor volume over time, and the mice were weighed twice per week as a surrogate for signs of toxicity.

Compound `COc1cccc2c1C(=O)c1c(O)c3c(c(O)c1C2=O)C[C@@](O)(C(=O)CO)C[C@@H]3O[C@H]1C[C@H](N)[C@H](O)[C@H](C)O1` [doxorubicin] has a TGI (OVCAR3 xenograft) of 43.11%.
For `N.N.O=C([O-])C1(C(=O)[O-])CCC1.[Pt+2]` [carboplatin], the TGI (TOV21G xenograft) was 89.75%.
`Nc1ccn([C@@H]2O[C@H](CO)[C@@H](O)C2(F)F)c(=O)n1` [Gemcitabine] was tested, and the inhibition at 0.09 µM (KMS-12-BM cells) was 38%, the inhibition at 0.05 µM (OPM-2 cells) was 35.1% and the inhibition at 0.002 µM (MOLP-8 cells) was 22%.
`NC(=S)N/N=C/c1ncccc1N` [Triapine] was tested, and the A427 cell growth (A427 cells) was “do not inhibit A427 cell growth”.
`NC(=O)c1cccc2cn(-c3ccc([C@@H]4CCCNC4)cc3)nc12` [niraparib] showed a TGI (x2-MDA-MB-468 tumor) of 47.7%.
